Molecular target: T1, LeMTS1 (Solanum lycopersicum, UniProt Q1XBU5)
T1 sequence (Q1XBU5 44-609): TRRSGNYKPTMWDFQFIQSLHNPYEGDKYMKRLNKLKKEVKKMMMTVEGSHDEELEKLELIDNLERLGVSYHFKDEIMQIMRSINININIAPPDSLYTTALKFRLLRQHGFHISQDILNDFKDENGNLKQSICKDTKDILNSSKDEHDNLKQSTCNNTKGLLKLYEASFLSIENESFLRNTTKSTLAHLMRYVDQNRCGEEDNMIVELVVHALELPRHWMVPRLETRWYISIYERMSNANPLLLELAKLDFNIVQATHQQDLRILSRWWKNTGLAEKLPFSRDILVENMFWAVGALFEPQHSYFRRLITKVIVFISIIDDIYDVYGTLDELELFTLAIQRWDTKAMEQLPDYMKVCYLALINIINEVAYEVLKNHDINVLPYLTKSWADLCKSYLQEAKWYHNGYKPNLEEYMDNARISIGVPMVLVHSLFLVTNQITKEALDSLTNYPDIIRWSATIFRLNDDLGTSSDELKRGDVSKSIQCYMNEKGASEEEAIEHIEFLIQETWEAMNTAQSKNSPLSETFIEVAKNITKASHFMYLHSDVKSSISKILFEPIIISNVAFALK
Assay: terpene synthase assay, SPME GC-TOF-MS of products
Type: biochemical
Settings: product (E)-nerolidol; 10 uM substrate, 10 mM MgCl2, 2 mM MnCl2, HEPES pH 7.5, 30 C, 1 h

Compound: CC(C)=CCC/C(C)=C/CC/C(C)=C/COP(=O)(O)OP(=O)(O)O [FPP]
- terpene synthase assay, SPME GC-TOF-MS of products: LeMTS1 was also able to utilize the sesquiterpene precursor farnesyl diphosphate (FPP) as substrate
